Like-named read-outs stand apart in the source and are kept apart here.
Columns and labels:
MALME-3M = experiment: NCI single-dose screen (SRB); type: cell-based; details: Homo sapiens; Melanoma MALME-3M; 10^−5 M; read-out: Growth inhibition percentage
Method: (§1) The methodology of the NCI anticancer screening was described in detail elsewhere (http://www.dtp.nci.nih.gov). […] Tested compounds were added to the culture at a single concentration (10^−5 M) and the cultures were incubated for 48 h. End-point determinations were made with a protein binding dye, SRB. Results for each tested compound were reported as the percentage growth of the treated cells when compared to the untreated control cells. The percentage growth was evaluated spectrophotometrically versus controls not treated with test agents. All experiments were repeated three times (Table 1).
(§2) Briefly, the protocol was performed on 60 human tumor cell lines derived from different nine neoplastic diseases. […] If the results obtained met selection criteria, then the compound was tested again on all 60 cell lines in 5× 10-fold dilutions with the top dose being 10^−4 M or 150 μg/mL. Detailed methods are described in the Supplementary Materials related to this article.
(§3) on their site (http://www.dtp.nci.nih.gov). But briefly, the protocol performed at sixty human
(§4) National Cancer Institute, Bethesda, USA. If the results obtained meet selection criteria, then the
(§5) 10-4 molar or 150 μg/mL. […]

MDA-MB-435 = experiment: NCI single-dose screen (SRB); type: cell-based; details: Homo sapiens; Melanoma MDA-MB-435; 10^−5 M; read-out: Growth inhibition percentage
Method: as §1, §2, §3, §4, §5

UACC-62 = experiment: NCI single-dose screen (SRB); type: cell-based; details: Homo sapiens; Melanoma UACC-62; 10^−5 M; read-out: Growth inhibition percentage
Method: as §1, §2, §3, §4, §5

OVCAR-5 = experiment: NCI single-dose screen (SRB); type: cell-based; details: Homo sapiens; Ovarian Cancer OVCAR-5; 10^−5 M; read-out: Growth inhibition percentage
Method: as §1, §2, §3, §4, §5

SN12C = experiment: NCI single-dose screen (SRB); type: cell-based; details: Homo sapiens; Renal Cancer SN12C; 10^−5 M; read-out: Growth inhibition percentage
Method: as §1, §2, §3, §4, §5

A549/ATCC = experiment: NCI single-dose screen (SRB); type: cell-based; details: Homo sapiens; Non-Small-Cell Lung Cancer A549/ATCC; 10^−5 M; read-out: Growth inhibition percentage
Method: as §1, §2, §3, §4, §5

SNB-19 = experiment: NCI single-dose screen (SRB); type: cell-based; details: Homo sapiens; CNS Cancer SNB-19; 10^−5 M; read-out: Growth inhibition percentage
Method: as §1, §2, §3, §4, §5

SR = experiment: NCI single-dose screen (SRB); type: cell-based; details: Homo sapiens; Leukemia SR; 10^−5 M; read-out: Growth inhibition percentage
Method: as §1, §2, §3, §4, §5

SF-539 = experiment: NCI single-dose screen (SRB); type: cell-based; details: Homo sapiens; CNS Cancer SF-539; 10^−5 M; read-out: Growth inhibition percentage
Method: as §1, §2, §3, §4, §5

K-562 = experiment: NCI single-dose screen (SRB); type: cell-based; details: Homo sapiens, K562; Leukemia K-562; 10^−5 M; read-out: Growth inhibition percentage
Method: as §1, §2, §3, §4, §5

HOP-92 = experiment: NCI single-dose screen (SRB); type: cell-based; details: Homo sapiens; Non-Small-Cell Lung Cancer HOP-92; 10^−5 M; read-out: Growth inhibition percentage
Method: as §1, §2, §3, §4, §5

UO-31 = experiment: NCI single-dose screen (SRB); type: cell-based; details: Homo sapiens; Renal Cancer UO-31; 10^−5 M; read-out: Growth inhibition percentage
Method: as §1, §2, §3, §4, §5

NCI-H322M = experiment: NCI single-dose screen (SRB); type: cell-based; details: Homo sapiens; Non-Small-Cell Lung Cancer NCI-H322M; 10^−5 M; read-out: Growth inhibition percentage
Method: as §1, §2, §3, §4, §5

OVCAR-4 = experiment: NCI single-dose screen (SRB); type: cell-based; details: Homo sapiens; Ovarian Cancer OVCAR-4; 10^−5 M; read-out: Growth inhibition percentage
Method: as §1, §2, §3, §4, §5

RPMI-8226 = experiment: NCI single-dose screen (SRB); type: cell-based; details: Homo sapiens; Leukemia RPMI-8226; 10^−5 M; read-out: Growth inhibition percentage
Method: as §1, §2, §3, §4, §5

DU-145 = experiment: NCI single-dose screen (SRB); type: cell-based; details: Homo sapiens; Prostate Cancer DU-145; 10^−5 M; read-out: Growth inhibition percentage
Method: as §1, §2, §3, §4, §5

HOP-62 = experiment: NCI single-dose screen (SRB); type: cell-based; details: Homo sapiens; Non-Small-Cell Lung Cancer HOP-62; 10^−5 M; read-out: Growth inhibition percentage
Method: as §1, §2, §3, §4, §5

MOLT-4 = experiment: NCI single-dose screen (SRB); type: cell-based; details: Homo sapiens; Leukemia MOLT-4; 10^−5 M; read-out: Growth inhibition percentage
Method: as §1, §2, §3, §4, §5

IGROV1 = experiment: NCI single-dose screen (SRB); type: cell-based; details: Homo sapiens, IGROV-1; Ovarian Cancer IGROV1; 10^−5 M; read-out: Growth inhibition percentage
Method: as §1, §2, §3, §4, §5

U251 = experiment: NCI single-dose screen (SRB); type: cell-based; details: Homo sapiens, U-251; CNS Cancer U251; 10^−5 M; read-out: Growth inhibition percentage
Method: as §1, §2, §3, §4, §5

HCT-15 = experiment: NCI single-dose screen (SRB); type: cell-based; details: Homo sapiens; Colon Cancer HCT-15; 10^−5 M; read-out: Growth inhibition percentage
Method: as §1, §2, §3, §4, §5

UACC-257 = experiment: NCI single-dose screen (SRB); type: cell-based; details: Homo sapiens; Melanoma UACC-257; 10^−5 M; read-out: Growth inhibition percentage
Method: as §1, §2, §3, §4, §5

SF-295 = experiment: NCI single-dose screen (SRB); type: cell-based; details: Homo sapiens; CNS Cancer SF-295; 10^−5 M; read-out: Growth inhibition percentage
Method: as §1, §2, §3, §4, §5

EKVX = experiment: NCI single-dose screen (SRB); type: cell-based; details: Homo sapiens; Non-Small-Cell Lung Cancer EKVX; 10^−5 M; read-out: Growth inhibition percentage
Method: as §1, §2, §3, §4, §5

SK-MEL-5 = experiment: NCI single-dose screen (SRB); type: cell-based; details: Homo sapiens; Melanoma SK-MEL-5; 10^−5 M; read-out: Growth inhibition percentage
Method: as §1, §2, §3, §4, §5

NCI-H226 = experiment: NCI single-dose screen (SRB); type: cell-based; details: Homo sapiens; Non-Small-Cell Lung Cancer NCI-H226; 10^−5 M; read-out: Growth inhibition percentage
Method: as §1, §2, §3, §4, §5

M14 = experiment: NCI single-dose screen (SRB); type: cell-based; details: Homo sapiens; Melanoma M14; 10^−5 M; read-out: Growth inhibition percentage
Method: as §1, §2, §3, §4, §5

OVCAR-8 = experiment: NCI single-dose screen (SRB); type: cell-based; details: Homo sapiens; Ovarian Cancer OVCAR-8; 10^−5 M; read-out: Growth inhibition percentage
Method: as §1, §2, §3, §4, §5

HCC-2998 = experiment: NCI single-dose screen (SRB); type: cell-based; details: Homo sapiens; Colon Cancer HCC-2998; 10^−5 M; read-out: Growth inhibition percentage
Method: as §1, §2, §3, §4, §5

leukemia RPMI-8226 = experiment: MTT antiproliferative assay
[1] = Homo sapiens, RPMI-8226, read-out: Cytotoxicity IC50 RPMI-8226, MTT, mean ± SD

SMILES | inhibition at 10 µM (MALME-3M) | inhibition at 10 µM (MDA-MB-435) | inhibition at 10 µM (UACC-62) | inhibition at 10 µM (OVCAR-5) | inhibition at 10 µM (SN12C) | inhibition at 10 µM (A549/ATCC) | inhibition at 10 µM (SNB-19) | inhibition at 10 µM (SR) | inhibition at 10 µM (SF-539) | inhibition at 10 µM (K-562) | inhibition at 10 µM (HOP-92) | inhibition at 10 µM (UO-31) | inhibition at 10 µM (NCI-H322M) | inhibition at 10 µM (OVCAR-4) | inhibition at 10 µM (RPMI-8226) | inhibition at 10 µM (DU-145) | inhibition at 10 µM (HOP-62) | inhibition at 10 µM (MOLT-4) | inhibition at 10 µM (IGROV1) | inhibition at 10 µM (U251) | also measured
COC(=O)/C=C1/S/C(=N/NC(=O)c2cc3ccc2CCc2ccc(cc2)CC3)N(C2CC2)C1=O [Compound 3f] | 11.3% | 8.06% | 18% | 0% | 17.1% | 11.4% | 11.3% | 39.1% | 0% | 30.5% | 16.2% | 21.7% | 4.43% | 10.5% | 49.8% | 6.2% | 0% | 55.6% | 7.2% | 20.3% | inhibition at 10 µM (HCT-15): 29.4%; inhibition at 10 µM (UACC-257): 16.3%; inhibition at 10 µM (SF-295): 8.8%; inhibition at 10 µM (EKVX): 12.2%; inhibition at 10 µM (SK-MEL-5): 14.5%; inhibition at 10 µM (NCI-H226): 9.41%; inhibition at 10 µM (M14): 19.2%; inhibition at 10 µM (OVCAR-8): 13.3%; inhibition at 10 µM (HCC-2998): 0%
COC(=O)C=C1SC(=Nc2cccnc2)N(NC(=O)c2cc3ccc2CCc2ccc(cc2)CC3)C1=O [Compound 3c, Methyl (E)-2-((E)-3-[2.2]paracyclophanyl)amido-4-oxo-2-(pyridin-3-ylimino)-thiazolidin-5-ylidene)acetate] | 0% | 0% | 10.7% | 0.61% | 8.87% | 2.04% | 16.6% | 74.2% | 11.6% | 20.7% | 8.14% | 21.9% | 1.72% | 7.76% | 83% | 0% | 4% | 21.9% | 15.4% | 14.7% | inhibition at 10 µM (HCT-15): 11.8%; inhibition at 10 µM (UACC-257): 0.83%; inhibition at 10 µM (SF-295): 5.63%; inhibition at 10 µM (EKVX): 2.61%; inhibition at 10 µM (SK-MEL-5): 3.64%; inhibition at 10 µM (NCI-H226): 7.48%; inhibition at 10 µM (M14): 7.99%; inhibition at 10 µM (OVCAR-8): 1.51%; inhibition at 10 µM (HCC-2998): 0%; IC50 (leukemia RPMI-8226; [1]): 9.69 µM; IC50 (leukemia RPMI-8226; read-out: Cytotoxicity IC50 RPMI-8226, MTT, mean ± SD): 9.96 ± 0.345 µM
C=CCN1C(=O)C(=CC(=O)OC)SC1=NNC(=O)c1cc2ccc1CCc1ccc(cc1)CC2 [Compound 3d] | 7.56% | 0% | 22.8% | 3.9% | 13.1% | 5.2% | 15.3% | 98.2% | 0.33% | 48.1% | 18.6% | 24.6% | 2.94% | 2.93% | 109% | 0% | 0% | 64.5% | 10.8% | 18.2% | inhibition at 10 µM (HCT-15): 33.1%; inhibition at 10 µM (UACC-257): 8.89%; inhibition at 10 µM (SF-295): 6.42%; inhibition at 10 µM (EKVX): 9.16%; inhibition at 10 µM (SK-MEL-5): 7.53%; inhibition at 10 µM (NCI-H226): 12.4%; inhibition at 10 µM (M14): 21.1%; inhibition at 10 µM (OVCAR-8): 11.8%; inhibition at 10 µM (HCC-2998): 0%; IC50 (leukemia RPMI-8226; [1]): 17.81 ± 0.0544 µM
COc1cc2c(c(OC)c1OC)-c1ccc(OC)c(=O)cc1[C@@H](NC(C)=O)CC2 [Colchicine, colchicine, reference compound] | – | – | – | – | – | – | – | – | – | – | – | – | – | – | – | – | – | – | – | – | IC50 (leukemia RPMI-8226; Homo sapiens, RPMI-8226, read-out: Cytotoxicity IC50 RPMI-8226): 4.05 ± 0.0478 µM
